{"source": "patent US20060188485A1", "about": "“Autologous self-tolerance inducing cells of monocytic origin and their use in pharmaceutical preparations” (priority 2003, published 2006)", "tested_on": "PHA-stimulated lymphocytes", "assay": "Mixed lymphocyte culture with PHA-stimulated lymphocytes, 3[H]-thymidine incorporation", "assay_type": "cell-based, human", "conditions": "2 μmol 1-MT", "experimental": "In order to clarify, whether the inhibitor of the enzyme indolamine-2,3-dioxygenase (IDO) 1-methyltryptophane (1-MT) influences the suppressor function of the TAIC generated in the “Mo” and “Mo+Ly” set ups (see Example 4), a variety of mixed lymphocyte cultures (MLC) with PHA (phytohaemagglutinine) stimulated T-cells in the presence and in the absence of 1-MT were established.\nIn these mixed lymphocyte cultures 50.000 lymphocytes with 2 μg PHA were transferred into the wells of a 96-well-plate, followed by a proliferation period over 144 hours (indicated as “PhaLy”). Lymphocytes only cultivated in medium without addition of PHA were run as a further control (indicated as “Ly”). […]\nAfter 144 hours cultivation, all controls or co-cultures were further cultivated for 24 hours in the presence of ^3[H]-thymidine (“pulsed”) and thereafter the amount of radioactively labeled thymidine incorporated was determined as counts per minute (cpm), see FIG. 4. In this arrangement, the amount of the radio activity determined is a measure for the amount of labeled thymidine incorporated into the DNA, and therefore a measure for the proliferation rate of the lymphocytes. […]", "data": [{"smiles": "Cn1cc(C[C@H](N)C(=O)O)c2ccccc21", "note": "[1-MT, 1-methyltryptophane]", "values": [{"measurement": "influence of 1-MT on the suppressor function of the TAIC", "result": "increases the suppressor function of the TAIC synergistically"}, {"measurement": "influence of 1-MT on the suppressor function of the TAIC", "setting": "listed as 1-methyltryptophane", "result": "no influence"}]}]}
